Results: patent US20040023972A1, “Use of substituted imidazo[1,2-a]-pyridin-, -pyrimidin-and-pyrazin-3-yl-amine derivatives in the preparation of medicaments for inhibiting NOS” (Gruenenthal GmbH, priority 2000, published 2004)
Counter-ions that a name gives are not always drawn.

How the values were obtained:
[1] = target: NOS (Rattus norvegicus, UniProt P29476); experiment: Citrulline assay (Bredt and Snyder); format: biochemical
Description: This assay was carried out as described by D. S. Bredt and S. H. Snyder (Proc. Natl. Acad. Sci. USA (1990), 87, 682-685).

[2] = target: T1, NO synthase (Rattus norvegicus, UniProt P29476); experiment: HTS-NOS assay (NOS assay): conversion of radioactive arginine, cation-exchanger filter plate; format: biochemical; settings: for inhibition at 10 µM: read-out: HTS-NOS assay: % inhibition (10 μM)
T1 construct: the supernatant was then removed by decantation and frozen in portions at −80° C; from tissue; host or cells: rat cerebellum, 20,000 g supernatant of homogenate
Summary of the method: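 Rat cerebellum supernatant as NOS source, incubated with radiolabelled arginine plus cofactors including NADPH at 25 °C for 5-60 min depending on enzyme activity. Unconverted arginine was trapped on a cation-exchange filter plate, citrulline washed out, and bound arginine counted by scintillation; % inhibition versus no-compound reactions.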

| Compound | inhibition at 10 µM [2] | also measured |
| --- | --- | --- |
| Cc1cc(C)n2c(NC(C)(C)CC(C)(C)C)c(-c3ccco3)nc2c1 [Example 296, (2-Furan-2-yl-5,7-dimethyl-imidazo[1,2-a]-pyridin-3-yl)-(1,1,3,3-tetramethyl-butyl)-amine; hydrochloride] | – | IC50 [1]: 2.5 µM |
| Cc1cc(C)n2c(NC3CCCCC3)c(-c3ccncc3)nc2c1 [Example 295, Cyclohexyl-(5,7-dimethyl-2-pyridin-4-yl-imidazo[1,2-a]pyridin-3-yl)-amine; hydrochloride] | – | IC50 [1]: 9.2 µM |
| Cc1ccn2c(NC3CCCCC3)c(-c3ccccc3C(F)(F)F)nc2c1 [Example 292, Cyclohexyl-[7-methyl-2-(2-trifluorO-methyl-phenyl)-imidazo[1,2-a]pyridin-3-yl]-amine; hydrochloride] | – | IC50 [1]: 2.4 µM |
| COc1ccccc1-c1nc2cc(C)cc(C)n2c1N(C(C)=O)c1c(C)cccc1C [Example 180, N-(2,6-dimethyl-phenyl)-N-[2-(2-methoxy-phenyl)-5,7-dimethyl-imidazo[1,2-a]-pyridin-3-yl]-acetamide] | 54% | – |
| CC(=O)N(c1c(C)nc2cc(C)cc(C)n12)C1CCCCC1 [Example 175, N-cyclohexyl-N-(2,5,7-trimethyl-imidazo[1,2-a]pyridin-3-yl)-acetamide] | 52% | – |
| Cc1ccn2c(NC(C)(C)CC(C)(C)C)c(-c3ccccc3F)nc2c1 [Example 298, [2-(2-Fluorophenyl)-7-methyl-imidazo[1,2-a]pyridin-3-yl]-(1,1,3,3-tetramethyl-butyl)-amine; hydrochloride] | – | IC50 [1]: 4.3 µM |
| CC(=O)N(c1c(-c2cc(C)c(C)o2)nc2cccc(C)n12)C(C)(C)CC(C)(C)C [Example 222, N-[2-(4,5-dimethyl-furan-2-yl)-5-methyl-imidazo[1,2-a]pyridin-3-yl]-N-(1,1,3,3-tetramethyl-butyl)-acetamide] | 53% | – |
| [C-]#[N+]CCCCCCN(C(C)=O)c1c(-c2cccnc2)nc2cc(C)ccn12 [Example 241, {6-[acetyl-(7-methyl-2-pyridin-3-yl-imidazo[1,2-a]pyridin-3-yl)-amino]-hexyl}-methylidyne-ammonium] | – | HTS-NOS assay: % inhibition (10 μM) [2]: 62% |
| [C-]#[N+]CCCCCCNc1c(-c2ccccc2Br)nc2cc(C)ccn12 [Example 137, {6-[2-(2-Bromo-phenyl)-7-methyl-imidazo[1,2-a]pyridin-3-ylamino]-hexyl}-methylidyne-ammonium] | – | HTS-NOS assay: % inhibition (10 μM) [2]: 52% |
| Cc1cc(C)n2c(NC(C)(C)CC(C)(C)C)c(-c3cccc(Cl)c3Cl)nc2c1 [Example 84, [2-(2,3-Dichlorophenyl)-5,7-dimethyl-imidazo[1,2-a]pyridin-3-yl]-(1,1,3,3-tetramethyl-butyl)-amine] | 54% | – |
| Cc1ccn2c(NC3CCCCC3)c(-c3ccccc3Br)nc2c1 [Example 100, [2-(2-Bromophenyl)-7-methyl-imidazo[1,2-a]pyridin-3-yl]-cyclohexyl-amine] | 50% | – |
| Cc1ccn2c(NC(C)(C)C)c(C)nc2c1 [Example 94, Tert-butyl-(2,7-dimethyl-imidazo[1,2-a]-pyridin-3-yl)-amine] | 65% | – |
| CC(=O)N(c1c(-c2cccnc2)nc2cc(C)cc(C)n12)C(C)(C)CC(C)(C)C [Example 147, N-(5,7-dimethyl-2-pyridin-3-yl-imidazo[1,2-a]pyridin-3-yl)-N-(1,1,3,3-tetramethyl-butyl)-acetamide] | 68% | – |
| CC(=O)N(c1c(-c2cccnc2)nc2cc(C)ccn12)C(C)(C)CC(C)(C)C [Example 168, N-(7-methyl-2-pyridin-3-yl-imidazo[1,2-a]pyridin-3-yl)-N-(1,1,3,3-tetramethylbutyl)-acetamide] | 56% | – |
| Cc1cc(C)n2c(NC(C)(C)CC(C)(C)C)c(-c3cccnc3)nc2c1 [Example 12, (5,7-Dimethyl-2-pyridin-3-yl-imidazo[1,2-a]-pyridin-3-yl)-(1,1,3,3-tetramethyl-butyl)-amine] | 61% | – |
| Cc1cc(C)n2c(Nc3c(C)cccc3C)c(-c3cccc(Cl)c3Cl)nc2c1 [Example 78, [2-(2,3-Dichlorophenyl)-5,7-dimethyl-imidazo[1,2-a]pyridin-3-yl]-(2,6-dimethyl-phenyl)-amine] | 61% | – |
| CC(=O)N(c1c(C)cccc1C)c1c(C(C)(C)C)nc2cc(C)cc(C)n12 [Example 179, N-(2-tert-butyl-5,7-dimethyl-imidazo[1,2-a]pyridin-3-yl)-N-(2,6-dimethylphenyl)-acetamide] | 60% | – |
| Cc1ccn2c(NC3CCCCC3)c(-c3cccnc3)nc2c1 [Example 23, Cyclohexyl-(7-methyl-2-pyridin-3-yl-imidazo[1,2-a]pyridin-3-yl)-amine] | 74% | – |
